Measurements from US20030129222A1, “Liposomal imexon” (priority 2000, published 2003).
pIC50: −log10 of the molar value.

How the values were obtained:
[1] = test system: L1210 leukemia, Sens; assay: Cytotoxicity in tumor cell culture, MTT assay; format: cell-based, murine; settings: Mus musculus, L1210; MTT assay; read-out: IC50 against human mouse tumors, L1210 leukemia Sens
In short: (§1)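 N-substituted 2-cyanoaziridine-1-carboxamides were tested against a panel of human tumor lines and murine leukemia cells. L1210 Mdr is a murine multidrug-resistant, P-glycoprotein-positive leukemia line.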

[2] = test system: L1210 leukemia, Mdr; assay: Cytotoxicity in tumor cell culture, MTT assay; format: cell-based, murine; settings: Mus musculus, L1210; MTT assay, multidrug-resistant; read-out: IC50 against human mouse tumors, L1210 leukemia Mdr
In short: as §1

[3] = test system: MCF7 breast, Sens; assay: Cytotoxicity in tumor cell culture, SRB assay; format: cell-based, human; settings: Homo sapiens, MCF7; read-out: IC50 against human mouse tumors, MCF7 breast Sens
In short: as §1

[4] = test system: A-549 lung; assay: Cytotoxicity in tumor cell culture, SRB assay; format: cell-based, human; settings: Homo sapiens, A549; read-out: IC50 against human mouse tumors, A-549 lung
In short: as §1

[5] = test system: MCF7 breast, Dox (doxorubicin-resistant); assay: Cytotoxicity in tumor cell culture, SRB assay; format: cell-based, human; settings: Homo sapiens, MCF7; doxorubicin-resistant; read-out: IC50 against human mouse tumors, MCF7 breast Dox
In short: as §1

[6] = test system: OVCAR3 ovarian; assay: Cytotoxicity in tumor cell culture, SRB assay; format: cell-based, human; settings: Homo sapiens, OVCAR-3; read-out: IC50 against human mouse tumors, OVCAR3 ovarian
In short: as §1

[7] = test system: MCF7 breast, mitox (mitoxantrone-resistant); assay: Cytotoxicity in tumor cell culture, SRB assay; format: cell-based, human; settings: Homo sapiens, MCF7; mitoxantrone-resistant; read-out: IC50 against human mouse tumors, MCF7 breast mitox
In short: as §1

[8] = test system: A375 melan; assay: Cytotoxicity in tumor cell culture, SRB assay; format: cell-based, human; settings: Homo sapiens, A-375; read-out: IC50 against human mouse tumors, A375 melan
In short: as §1

[9] = test system: 8226 myeloma, Sens (drug-sensitive); assay: Cytotoxicity in tumor cell culture, SRB assay; format: cell-based, human; settings: Homo sapiens; drug-sensitive line; read-out: IC50 against human mouse tumors, 8226 myeloma Sens
In short: as §1

[10] = test system: fresh human tumor cells; settings: cited from earlier work
[11] = test system: human lymphoma, melanoma, and prostate cancer cell lines; settings: cited from earlier work
[12] = test system: Other Gynecologic (cloned fresh human tumors); assay: Human tumor cloning assay, [3H]thymine uptake by tumor-colony-forming cells; format: cell-based; settings: No. tested 4
Protocol: (§2) Assays of antitumor agents against fresh human tumor-colony-forming cells provide results that predict better the responses obtained in treating cancer patients than those obtained with long established human cell lines (Salmon et al., 1981). For this reason, the N-phenyl derivative 13 was tested against a variety of fresh human tumors obtained at the Arizona Cancer Center using established methodology (Salmon and Hersh, 1994).

[13] = test system: Lung (cloned fresh human tumors); assay: as above; format: cell-based; settings: No. tested 2
Protocol: as §2

[14] = test system: Breast (cloned fresh human tumors); assay: as above; format: cell-based; settings: No. tested 4
Protocol: as §2

[15] = test system: Myeloma (cloned fresh human tumors); assay: as above; format: cell-based; settings: No. tested 3
Protocol: as §2

[16] = test system: Stomach (cloned fresh human tumors); assay: as above; format: cell-based; settings: No. tested 1
Protocol: as §2

[17] = test system: Sarcoma (cloned fresh human tumors); assay: as above; format: cell-based; settings: Sarcoma, No. tested 8
Protocol: as §2

[18] = test system: Melanoma (cloned fresh human tumors); assay: as above; format: cell-based; settings: No. tested 10
Protocol: as §2

[19] = test system: Ovary (cloned fresh human tumors); assay: as above; format: cell-based; settings: No. tested 12
Protocol: as §2

[20] = test system: panel of tumor cells in culture; assay: Panel of tumor cell cultures (all lines of Table 3); format: cell-based, human, murine
Description: A set of twenty 2-cyanoaziridine-1-carboxamides was synthesized from 2-cyanoaziridine and appropriate isocyanates. […] It is contemplated that one or more of these 2-cyanoaziridine-1-carboxamides derivatives may be used in combination with a lipid and/or another agent.

[21] = test system: transplanted syngeneic tumors; settings: rodents; cited from earlier work
[22] = cited from earlier work
[23] = test system: WiDr colon, Sens; assay: Cytotoxicity in tumor cell culture, SRB assay; format: cell-based; settings: Homo sapiens, WiDr; read-out: IC50 against human mouse tumors, WiDr colon Sens
In short: as §1

[24] = test system: WiDr colon, res; assay: Cytotoxicity in tumor cell culture, SRB assay; format: cell-based; settings: Homo sapiens, WiDr; multidrug-resistant; read-out: IC50 against human mouse tumors, WiDr colon res
In short: as §1

[25] = test system: 8226 myeloma, Res (imexon-resistant); assay: Cytotoxicity in tumor cell culture, SRB assay; format: cell-based; settings: Homo sapiens; line made resistant to imexon; read-out: IC50 against human mouse tumors, 8226 myeloma Res
In short: as §1

## N=C1NC(=O)N2CC12 (stereo not drawn) [Imexon, 4-imino-1,3-diazabicyclo[3.1.0]hexan-2-one]
[1]
  pIC50: 3.21
[2]
  pIC50: 3.32
[3]
  pIC50: < 4.74
[4]
  pIC50: < 4.14
[5]
  pIC50: < 4.74
[6]
  pIC50: 3.19
[7]
  pIC50: < 4.74
[8]
  pIC50: 3.49
[9]
  pIC50: 4.77
[10]
  cytotoxicity in clonogenic assay: selectively cytotoxic to multiple myeloma
[11]
  activity against human tumor cell lines in SCID mice: active
[12]; Imexon 0.1 μM
  no. sensitive: 0
[12]; Imexon 1.0 μM
  no. sensitive: 0
[12]; Imexon 10 μM
  no. sensitive: 1
[13]; Imexon 0.1 μM
  no. sensitive: 0
[13]; Imexon 1.0 μM
  no. sensitive: 0
[13]; Imexon 10 μM
  no. sensitive: 2
[14]; Imexon 0.1 μM
  no. sensitive: 0
[14]; Imexon 1.0 μM
  no. sensitive: 2
[14]; Imexon 10 μM
  no. sensitive: 3
[15]; Imexon 0.1 μM
  no. sensitive: 3
[15]; Imexon 1.0 μM
  no. sensitive: 3
[15]; Imexon 10 μM
  no. sensitive: 3
[16]; Imexon 0.1 μM
  no. sensitive: 0
[16]; Imexon 1.0 μM
  no. sensitive: 0
[16]; Imexon 10 μM
  no. sensitive: 1
[17]; Imexon 0.1 μM
  no. sensitive: 0/2
[17]; Imexon 1.0 μM
  no. sensitive: 2
[17]; Imexon 10 μM
  no. sensitive: 5
[18]; Imexon 0.1 μM
  no. sensitive: 3/5
[18]; Imexon 1.0 μM
  no. sensitive: 4
[18]; Imexon 10 μM
  no. sensitive: 8
[19]; Imexon 0.1 μM
  no. sensitive: 4
[19]; Imexon 1.0 μM
  no. sensitive: 3/11
[19]; Imexon 10 μM
  no. sensitive: 8
[20]
  selectivity among tumor cell types: selective for multiple myeloma
[21]
  activity against transplanted syngeneic tumors: active
[22]; Phase I
  tolerability: well-tolerated
[22]; patients with lung cancer, breast cancer, or liver cancer
  clinical response: objective responses or stabilization of the disease
[23]
  pIC50: < 4.14
[24]
  pIC50: < 4.14
[25]
  pIC50: 3.94
